The values below come from patent publication US20080045514A1 (Cytovia, Inc., priority 2006, published 2008).

Each structure is given as a SMILES string. Read-outs that look alike come from different tables or passages of the source.

Holding throughout (type): cell-based
Test [1] concerns human Burkitt's lymphoma cell line Namalwa. The test is described as follows: Caspase cascade activation (EC50), Namalwa. The following applies: Homo sapiens, Burkitts lymphoma cell, Namalwa cells. How it is done: (§1) Human breast cancer cell lines T-47D, human hepatocellular carcinoma cell line SNU398, human colon carcinoma cell line HCT116, human cancer cell line H1299, human Burkitt's lymphoma cell line Namalwa, human lymphoma cell line Raji, and human B cell lymphoblastoid cell line Ramos were grown according to media component mixtures designated by American Type Culture Collection+10% FCS (Invitrogen Corporation), in a 5% CO2-95% humidity incubator at 37° C. T-47D and H1299 cells were maintained at a cell density between 50 and 80% confluency at a cell density of 0.1 to 0.6×10^6 cells/mL. Cells were harvested at 600×g and resuspended at 0.65×10^6 cells/mL into appropriate media+10% FCS. An aliquot of 22.5 μL of cells was added to a well of a 384-well microtiter plate containing 2.5 μL of a 10% DMSO in RPMI-1640 media solution containing 0.16 to 100 μM of 3-(2-chlorophenyl)-6-(3,4-methylenedioxyphenyl)-7H-[1,2,4]triazolo[3,4-b][1,3,4]thiadiazine or other test compound (0.016 to 10 μM final). An aliquot of 22.5 μL of cells was added to a well of a 384-well microtiter plate containing 2.5 μL of a 10% DMSO in RPMI-1640 media solution without test compound as the control sample. The samples were mixed by agitation and then incubated at 37° C. for 48 h in a 5% CO2-95% humidity incubator. After incubation, the samples were removed from the incubator and 25 μL of a solution containing 14 μM of N—(Ac-DEVD)-N′-ethoxycarbonyl-R110 (SEQ ID No.:1) fluorogenic substrate (Cytovia, Inc.; WO99/18856), 20% sucrose (Sigma), 20 mM DTT (Sigma), 200 mM NaCl (Sigma), 40 mM Na PIPES buffer pH 7.2 (Sigma), and 500 μg/mL lysolecithin (Calbiochem) was added. The samples were mixed by agitation and incubated at room temperature. Using a fluorescent plate reader (Model SPECTRAfluor Plus, Tecan), an initial reading (T=0) was made approximately 1-2 min after addition of the substrate solution, employing excitation at 485 nm and emission at 530 nm, to determine the background fluorescence of the control sample. After the 3 h incubation, the samples were read for fluorescence as above (T=3 h). Calculation: The Relative Fluorescence Unit values (RFU) were used to calculate the sample readings as follows: RFU(T=3H)−Control RFU(T=0)=Net RFU(T=3h) The activity of caspase cascade activation was determined by the ratio of the net RFU value for 3-(2-chlorophenyl)-6-(3,4-methylenedioxyphenyl)-7H-[1,2,4]triazolo[3,4-b][1,3,4]thiadiazine (Example P) or other test compound to that of control samples. The EC50 (nM) was determined by a sigmoidal dose-response calculation (Prism 3.0, GraphPad Software Inc.).

The test system of test [2] is human breast cancer cell line T-47D. The test is described as follows: Caspase cascade activation (EC50), T-47D. The following applies: Homo sapiens, T47D cells. As for the experimental part:
as §1

Test [3] has as its system human hepatocellular carcinoma cell line SNU398. The experiment in a line: Caspase cascade activation (EC50), SNU398. The following applies: Homo sapiens, SNU-398, SNU398 cells. As for the experimental part: as §1
Test [4] has as its system human colon carcinoma cell line HCT116. The experiment in a line: Caspase cascade activation (EC50), HCT116. The following applies: Homo sapiens, HCT-116, HCT116 cells. How it is done:
as §1

Setting [5] is: read-out: Caspase potency (EC50) Namalwa.
Setting [6] is: read-out: Caspase potency (EC50) T47D.
The mark [7] stands for this setting: read-out: Caspase potency (EC50) SNU398.
[8] abbreviates: read-out: Caspase potency (EC50) HCT116.
[9] abbreviates: caspase cascade activation, read-out: caspase potency (EC50) T47D.
Setting [10] is: caspase cascade activation, read-out: caspase potency (EC50) SNU398.
Where [11] appears, read: caspase cascade activation, read-out: caspase potency (EC50) HCT116.
[12] abbreviates: caspase cascade activation, read-out: caspase potency (EC50) Namalwa.

Usually EC50 stands for the midpoint of the concentration-response curve. `Cc1ccc(C2=Nn3c(nnc3-c3c(C)nc4ccccn34)SC2)cc1` [Example 98, 3-(2-Methyl-imidazo[1,2-a]pyridin-3-yl)-6-(4-methylphenyl)-7H-[1,2,4]triazolo[3,4-b][1,3,4]thiadiazine]: the EC50 in test [1] (setting [5]) came out at 0.066 µM; in test [2] (setting [6]), 0.166 µM; in test [3] (setting [7]) it was 0.059 µM; in test [4] (setting [8]), 0.098 µM.

As for `COc1cccc(-c2nnc3n2N=C(c2ccc(O)c(O)c2)CS3)c1` [Example D2, 3-(3-Methoxyphenyl)-6-(3,4-dihydroxyphenyl)-7H-[1,2,4]triazolo[3,4-b][1,3,4]thiadiazine], the EC50 in test [2] (setting [9]) is 0.687 µM; in test [3] (setting [10]), 0.112 µM; in test [4] (setting [11]) it was 0.525 µM.

As to `COc1ccccc1-c1nnc2n1N=C(c1ccc(C(C)C)cc1)CS2` [Example 44, 6-(4-Isopropylphenyl)-3-(2-methoxyphenyl)-7H-[1,2,4]triazolo[3,4-b][1,3,4]thiadiazine], the EC50 in test [1] (setting [12]) was determined as 0.248 µM; in test [2] (setting [9]), 0.281 µM; in test [3] (setting [10]), 0.243 µM; in test [4] (setting [11]), 0.275 µM.

`COc1ccccc1-c1nnc2n1N=C(c1ccc(C)cc1C)CS2` [Example 39, 3-(2-Methoxyphenyl)-6-(2,4-dimethylphenyl)-7H-[1,2,4]triazolo[3,4-b][1,3,4]thiadiazine]: the EC50 in test [1] (setting [12]) worked out at 1.28 µM; in test [2] (setting [9]), 2.7 µM; in test [3] (setting [10]), 0.943 µM; in test [4] (setting [11]), 2.58 µM.

As to `Cc1ccc(C2=Nn3c(nnc3-c3ccc[nH]3)SC2)cc1` [Example 92, 6-(4-Methylphenyl)-3-(1H-pyrrol-2-yl)-7H-[1,2,4]triazolo[3,4-b][1,3,4]thiadiazine], the EC50 in test [1] (setting [12]), in test [2] (setting [9]), in test [3] (setting [10]) and in test [4] (setting [11]) was over 10 µM in each case.

As for `COc1ccccc1-c1nnc2n1N=C(c1ccc(Cl)c([N+](=O)[O-])c1)CS2` [Example 55, 6-(4-Chloro-3-nitrophenyl)-3-(2-methoxyphenyl)-7H-[1,2,4]triazolo[3,4-b][1,3,4]thiadiazine], the EC50 is over 10 µM in test [1] (setting [12]), 2.04 µM in test [2] (setting [9]), 1.87 µM in test [3] (setting [10]) and over 10 µM in test [4] (setting [11]).

For the compound `COc1ccc(C2=Nn3c(nnc3-c3cccc(Cl)c3Cl)SC2)cc1` [Example M3], the EC50 in test [1] (setting [12]) was found to be 0.068 µM; in test [2] (setting [9]), 0.268 µM; in test [3] (setting [10]), 0.082 µM; in test [4] (setting [11]) it was 0.124 µM.

Take `COc1ccccc1C1=Nn2c(nnc2-c2ccccc2OC)SC1` [Example 64, 3-(2-Methoxyphenyl)-6-(2-methoxylphenyl)-7H-[1,2,4]triazolo[3,4-b][1,3,4]thiadiazine]: the EC50 in test [1] (setting [12]), in test [2] (setting [9]), in test [3] (setting [10]) and in test [4] (setting [11]) was over 10 µM in each case.

As for `COc1ccccc1-c1nnc2n1N=C(c1ccc(C)c([N+](=O)[O-])c1)CS2` [Example 54, 3-(2-Methoxyphenyl)-6-(4-methyl-3-nitrophenyl)-7H-[1,2,4]triazolo[3,4-b][1,3,4]thiadiazine], the EC50 in test [1] (setting [12]) amounted to 0.29 µM; in test [2] (setting [9]), 0.554 µM; in test [3] (setting [10]), 0.306 µM; in test [4] (setting [11]) it was 0.441 µM.

With `COc1cccc(C2=Nn3c(nnc3-c3ccc(Cl)cc3Cl)SC2)c1` [Example O3], the EC50 amounted to 0.585 µM in test [1] (setting [12]), 1.29 µM in test [2] (setting [9]), 0.765 µM in test [3] (setting [10]) and 2.62 µM in test [4] (setting [11]).

For the compound `Cc1ccc(C2=Nn3c(nnc3-c3ccccc3[S+](C)[O-])SC2)cc1` (stereo not drawn) [Example 72, 3-(2-Methylsulfinylphenyl)-6-(4-methylphenyl)-7H-[1,2,4]triazolo[3,4-b][1,3,4]thiadiazine], the EC50 in test [1] (setting [12]), in test [2] (setting [9]), in test [3] (setting [10]) and in test [4] (setting [11]) was over 10 µM each time.

Regarding `COc1cc(Cl)ccc1-c1nnc2n1N=C(c1ccc(C)cc1)CS2` [Example 97, 3-(4-Chloro-2-methoxyphenyl)-6-(4-methylphenyl)-7H-[1,2,4]triazolo[3,4-b][1,3,4]thiadiazine], the EC50 in test [1] (setting [5]) was 0.004 µM; in test [2] (setting [6]) it was 0.034 µM; in test [3] (setting [7]), 0.006 µM; in test [4] (setting [8]) it was 0.008 µM.

For the compound `Cc1ccc(C2=Nn3c(nnc3-c3cc(N)cn3C)SC2)cc1` [Example 99, 3-(1-Methyl-4-amino-1H-pyrrol-2-yl)-6-(4-methylphenyl)-7H-[1,2,4]triazolo[3,4-b][1,3,4]thiadiazine], the EC50 in test [1] (setting [5]) was determined as 1.18 µM; in test [2] (setting [6]), 5.42 µM; in test [3] (setting [7]), 1.26 µM; in test [4] (setting [8]), 1.78 µM.

Turning to `COc1ccc(-c2nnc3n2N=C(c2ccc4[nH]c(=O)oc4c2)CS3)cc1OC` [Example 35, 6-(2,3-Dihydro-2-oxobenzo[d]oxazol-6-yl)-3-(3,4-dimethoxyphenyl)-7H-[1,2,4]triazolo[3,4-b][1,3,4]thiadiazine], the EC50 in test [1] (setting [12]), in test [2] (setting [9]), in test [3] (setting [10]) and in test [4] (setting [11]) was over 10 µM each time.

For the compound `Cc1ccccc1-c1nnc2n1N=C(c1ccc(C(C)(C)C)cc1)CS2` [Example 51, 6-(4-tert-Butylphenyl)-3-(2-methylphenyl)-7H-[1,2,4]triazolo[3,4-b][1,3,4]thiadiazine], the EC50 in test [1] (setting [12]), in test [2] (setting [9]), in test [3] (setting [10]) and in test [4] (setting [11]) was over 10 µM each time.

Turning to `Cc1ccc(C2=Nn3c(nnc3-c3ccoc3C)SC2)cc1` [Example 83, 3-(2-Methylfuran-3-yl)-6-(4-methylphenyl)-7H-[1,2,4]triazolo[3,4-b][1,3,4]thiadiazine], the EC50 in test [1] (setting [12]) is 0.332 µM; in test [2] (setting [9]) it was 2.54 µM; in test [3] (setting [10]), 0.523 µM; in test [4] (setting [11]), 0.683 µM.

For `COc1ccc(C2=Nn3c(nnc3-c3ccccc3Cl)SC2)cc1` [Example C2, 3-(2-Chlorophenyl)-6-(4-methoxyphenyl)-7H-[1,2,4]triazolo[3,4-b][1,3,4]thiadiazine], the EC50 in test [2] (setting [9]) came to 0.395 µM; in test [3] (setting [10]) it was 0.06 µM; in test [4] (setting [11]), 0.177 µM.

For the compound `CCOc1ccc(C2=Nn3c(nnc3-c3cccc(OCC)c3)SC2)cc1` [Example G2, 3-(3-Ethoxyphenyl)-6-(4-ethoxyphenyl)-7H-[1,2,4]triazolo[3,4-b][1,3,4]thiadiazine], the EC50 was 6.37 µM in test [2] (setting [9]), 2.55 µM in test [3] (setting [10]) and over 10 µM in test [4] (setting [11]).

As to `CCOc1ccc(C2=Nn3c(nnc3-c3cccc(Cl)c3)SC2)cc1` [Example E2, 3-(3-Chlorophenyl)-6-(4-ethoxyphenyl)-7H-[1,2,4]triazolo[3,4-b][1,3,4]thiadiazine], the EC50 in test [2] (setting [9]) is 1.1 µM; in test [3] (setting [10]), 0.429 µM; in test [4] (setting [11]), 0.681 µM.

As to `COc1cccc(-c2nnc3n2N=C(c2ccc(Br)cc2)CS3)c1` [Example F2, 3-(3-Methoxyphenyl)-6-(4-bromophenyl)-7H-[1,2,4]triazolo[3,4-b][1,3,4]thiadiazine], the EC50 in test [2] (setting [9]) is 5.4 µM; in test [3] (setting [10]) it was 2.71 µM; in test [4] (setting [11]), over 10 µM.

`COc1ccc(-c2nn3c(-c4ccccc4OC)nnc3[nH]c2=O)cc1` [Example 36, 3-(2-Methoxyphenyl)-6-(4-methoxyphenyl)-[1,2,4]triazolo[4,3-b][1,2,4]triazin-7(8H)-one]: the EC50 in test [1] (setting [12]), in test [2] (setting [9]) and in test [4] (setting [11]) was over 10 µM in each case.
